# Calls of active or inactive are those of the source.
# Experiments:
# HOP-92 = assay: Cytotoxicity against human HOP92 cells after 48 hrs by trypan blue dye exclusion assay; type: functional; details: HOP-92, 48 h
# HCC 2998 = assay: Cytotoxicity against human HCC2998 cells after 48 hrs by trypan blue dye exclusion assay; type: functional; details: HCC 2998, 48 h
# KM12 = assay: Cytotoxicity against human KM12 cells after 48 hrs by trypan blue dye exclusion assay; type: functional; details: KM12, 48 h
# UO-31 = assay: Cytotoxicity against human UO31 cells after 48 hrs by trypan blue dye exclusion assay; type: functional; details: UO-31, 48 h
# SR = assay: Cytotoxicity against human SR cells after 48 hrs by trypan blue dye exclusion assay; type: functional
# COLO 205 = assay: Cytotoxicity against human COLO205 cells after 48 hrs by trypan blue dye exclusion assay; type: functional; details: COLO 205, 48 h
# MOLT-4 = assay: Cytotoxicity against human MOLT4 cells after 48 hrs by trypan blue dye exclusion assay; type: functional; details: MOLT-4, 48 h
# Paracentrotus lividus [1] = assay: Antimitotic activity against Paracentrotus lividus embryo assessed as concentration required to cause 100% cleavage alteration after 2.5 to 6 hrs; type: functional
# OVCAR-3 = assay: Cytotoxicity against human OVCAR3 cells after 48 hrs by trypan blue dye exclusion assay; type: functional; details: OVCAR-3, 48 h
# MDA-MB-231 = assay: Cytotoxicity against human MDA-MB-231 cells after 48 hrs by trypan blue dye exclusion assay; type: functional; details: MDA-MB-231, 48 h
# SF-268 = assay: Cytotoxicity against human SF268 cells after 48 hrs by trypan blue dye exclusion assay; type: functional; details: SF-268, 48 h
# SW-620 = assay: Cytotoxicity against human SW620 cells after 48 hrs by trypan blue dye exclusion assay; type: functional; details: SW-620, 48 h
# RPMI-8226 = assay: Cytotoxicity against human RPMI8226 cells after 48 hrs by trypan blue dye exclusion assay; type: functional; details: RPMI-8226, 48 h
# OVCAR-5 = assay: Cytotoxicity against human OVCAR5 cells after 48 hrs by trypan blue dye exclusion assay; type: functional; details: OVCAR-5, 48 h
# Paracentrotus lividus [2] = assay: Microtubule destabilizing activity in Paracentrotus lividus embryo assessed as embryo spinning at 2 fold less effective threshold concentration after 15 mins to 20 hrs; type: functional, organism-based
# M14 = assay: Cytotoxicity against human M14 cells after 48 hrs by trypan blue dye exclusion assay; type: functional; details: M14, 48 h
# HOP-62 = assay: Cytotoxicity against human HOP62 cells after 48 hrs by trypan blue dye exclusion assay; type: functional; details: HOP-62, 48 h
# OVCAR-8 = assay: Cytotoxicity against human OVCAR8 cells after 48 hrs by trypan blue dye exclusion assay; type: functional; details: OVCAR-8, 48 h
# NCI-H322M = assay: Cytotoxicity against human NCI-H322M cells after 48 hrs by trypan blue dye exclusion assay; type: functional
# SK-MEL-28 = assay: Cytotoxicity against human SK-MEL-28 cells after 48 hrs by trypan blue dye exclusion assay; type: functional; details: SK-MEL-28, 48 h
# RXF 393 = assay: Cytotoxicity against human RXF393 cells after 48 hrs by trypan blue dye exclusion assay; type: functional; details: RXF 393, 48 h
# MDA-MB-468 = assay: Cytotoxicity against human MDA-MB-468 cells after 48 hrs by trypan blue dye exclusion assay; type: functional; details: MDA-MB-468, 48 h
# DU-145 = assay: Cytotoxicity against human DU145 cells after 48 hrs by trypan blue dye exclusion assay; type: functional; details: DU-145, 48 h
# A549 = assay: Cytotoxicity against human A549 cells after 48 hrs by trypan blue dye exclusion assay; type: functional; details: A549, 48 h
# K562 = assay: Cytotoxicity against human K562 cells after 48 hrs by trypan blue dye exclusion assay; type: functional; details: K562, 48 h
# Paracentrotus lividus [3] = assay: Antimitotic activity against Paracentrotus lividus embryo assessed as cleavage arrest at 2 fold less effective threshold concentration after 2.5 to 6 hrs; type: functional, organism-based
# ACHN = assay: Cytotoxicity against human ACHN cells after 48 hrs by trypan blue dye exclusion assay; type: functional
# HCT-15 = assay: Cytotoxicity against human HCT15 cells after 48 hrs by trypan blue dye exclusion assay; type: functional; details: HCT-15, 48 h
# Jurkat = assay: Cytotoxicity against human Jurkat cells; type: functional, cell-based
# SNB-19 = assay: Cytotoxicity against human SNB19 cells after 48 hrs by trypan blue dye exclusion assay; type: functional; details: SNB-19, 48 h
# OVCAR-4 = assay: Cytotoxicity against human OVCAR4 cells after 48 hrs by trypan blue dye exclusion assay; type: functional; details: OVCAR-4, 48 h
# [4] = Cytotoxicity against human Hs 578T cells after 48 hrs by trypan blue dye exclusion assay; type: functional
# NCI-H460 = assay: Cytotoxicity against human NCI-H460 cells after 48 hrs by trypan blue dye exclusion assay; type: functional; details: NCI-H460, 48 h
# NCI/ADR-RES = assay: Cytotoxicity against human NCI/ADR-RES cells after 48 hrs by trypan blue dye exclusion assay; type: functional
# HL-60(TB) = assay: Cytotoxicity against human HL-60(TB) cells after 48 hrs by trypan blue dye exclusion assay; type: functional; details: HL-60, 48 h
# LOX IMVI = assay: Cytotoxicity against human LOXIMVI cells after 48 hrs by trypan blue dye exclusion assay; type: functional
# Paracentrotus lividus [5] = assay: Microtubule destabilizing activity in Paracentrotus lividus embryo assessed as concentration required to cause 100% embryo spinning after 15 mins to 20 hrs; type: functional
# IGROV-1 = assay: Cytotoxicity against human IGROV1 cells after 48 hrs by trypan blue dye exclusion assay; type: functional; details: IGROV-1, 48 h
# CCRF-CEM = assay: Cytotoxicity against human CCRF-CEM cells after 48 hrs by trypan blue dye exclusion assay; type: functional
# HCT-116 = assay: Cytotoxicity against human HCT116 cells after 48 hrs by trypan blue dye exclusion assay; type: functional; details: HCT-116, 48 h
# SF-539 = assay: Cytotoxicity against human SF539 cells after 48 hrs by trypan blue dye exclusion assay; type: functional; details: SF-539, 48 h
# UACC-257 = assay: Cytotoxicity against human UACC257 cells after 48 hrs by trypan blue dye exclusion assay; type: functional; details: UACC-257, 48 h
# NCI-H522 = assay: Cytotoxicity against human NCI-H522 cells after 48 hrs by trypan blue dye exclusion assay; type: functional; details: NCI-H522, 48 h
# U-251 = assay: Cytotoxicity against human U251 cells after 48 hrs by trypan blue dye exclusion assay; type: functional; details: U-251, 48 h
# Paracentrotus lividus [6] = assay: Antimitotic activity against Paracentrotus lividus embryo assessed as cleavage alteration at 2 fold less effective threshold concentration after 2.5 to 6 hrs; type: functional, organism-based
# Malme-3M = assay: Cytotoxicity against human MALME-3M cells after 48 hrs by trypan blue dye exclusion assay; type: functional
# BT-549 = assay: Cytotoxicity against human BT549 cells after 48 hrs by trypan blue dye exclusion assay; type: functional; details: BT-549, 48 h
# NCI-H226 = assay: Cytotoxicity against human NCI-H226 cells after 48 hrs by trypan blue dye exclusion assay; type: functional; details: NCI-H226, 48 h
# EKVX = assay: Cytotoxicity against human EKVX cells after 48 hrs by trypan blue dye exclusion assay; type: functional
# SK-OV-3 = assay: Cytotoxicity against human SKOV3 cells after 48 hrs by trypan blue dye exclusion assay; type: functional; details: SK-OV-3, 48 h
structure (smiles),measurement,setting,value
COc1ccc2c(c1)OC1=C(C(=O)OC1)C2c1cc(OC)c2c(c1)OCO2 (configuration not stated),GI50,HOP-92,73000 nM
same,GI50,HCC 2998,42.1 nM
same,GI50,KM12,29.6 nM
same,GI50,UO-31,57.6 nM
same,GI50,SR,37.8 nM
same,GI50,COLO 205,27.8 nM
same,TGI,COLO 205,69.2 nM
same,GI50,MOLT-4,65 nM
same,EC,Paracentrotus lividus [1],2 nM
same,GI50,OVCAR-3,20.9 nM
same,TGI,OVCAR-3,44.6 nM
same,GI50,MDA-MB-231,61.4 nM
same,GI50,SF-268,78 nM
same,GI50,SW-620,39.2 nM
same,GI50,RPMI-8226,48.5 nM
same,GI50,OVCAR-5,153 nM
same,Activity,Paracentrotus lividus [2],inactive
same,GI50,M14,23.3 nM
same,GI50,HOP-62,34.9 nM
same,GI50,OVCAR-8,55.6 nM
same,GI50,NCI-H322M,71.3 nM
same,GI50,SK-MEL-28,34.2 nM
same,GI50,RXF 393,17.8 nM
same,GI50,MDA-MB-468,26.3 nM
same,GI50,DU-145,35.2 nM
same,GI50,A549,44.4 nM
same,GI50,K562,33 nM
same,Activity,Paracentrotus lividus [3],inactive
same,GI50,ACHN,267 nM
same,GI50,HCT-15,47.5 nM
same,IC50,Jurkat,55 nM
same,GI50,SNB-19,47.9 nM
same,GI50,OVCAR-4,59.8 nM
same,GI50,[4],30.8 nM
same,GI50,NCI-H460,36.6 nM
same,GI50,NCI/ADR-RES,18.6 nM
same,GI50,HL-60(TB),30.3 nM
same,GI50,LOX IMVI,69.1 nM
same,EC,Paracentrotus lividus [5],100 nM
same,GI50,IGROV-1,62.4 nM
same,GI50,CCRF-CEM,37 nM
same,GI50,HCT-116,37.4 nM
same,GI50,SF-539,34.4 nM
same,GI50,UACC-257,21300 nM
same,GI50,NCI-H522,< 10 nM
same,GI50,U-251,42.7 nM
same,Activity,Paracentrotus lividus [6],inactive
same,GI50,Malme-3M,> 100000 nM
same,GI50,BT-549,107 nM
same,GI50,NCI-H226,33.4 nM
same,GI50,EKVX,77.8 nM
same,GI50,SK-OV-3,29.3 nM
